# Reference: patent US10752591B2, “18-20 member bi-polycyclic compounds” (Haro Pharmaceutical Inc., priority 2014, dated 2020)
# Columns and labels:
# C2Cl2 myoblasts = assay: myotube fusion and degeneration in differentiated C2Cl2 cells left in exhausted media; assay type: cell-based; details: 200 nM pre-treatment
# Description: C2Cl2 myoblasts were seeded at 100,000 in 30 mm plate in growth medium (Phenol red-free RMPI containing 10% FBS, Sodium pyruvate and Ala-Glu), and “pre-treated” with DMSO or 200 nM of compounds 13 or 17. At confluence cells were shifted to differentiation media (high glucose DMEM, +0.2% HS+1× Insulin/Transferrin/Selenium (Life Tech 41400-045)+Glutamine, without Pyruvate). Fully differentiated C2Cl2-derived myotubes were left in culture without media renewal for 8 days followed by media renewal and microscopic examination.
# [1] = target: T1, purified recombinant human HDAC-6 (Homo sapiens, UniProt Q9UBN7); assay: HDAC-6 enzymatic inhibition (AMC fluorogenic peptide deacetylation); assay type: biochemical; details: relative to compound 17
# T1 construct: purchased Cayman Chem 10009465
# T1 sequence (Q9UBN7 1-1215): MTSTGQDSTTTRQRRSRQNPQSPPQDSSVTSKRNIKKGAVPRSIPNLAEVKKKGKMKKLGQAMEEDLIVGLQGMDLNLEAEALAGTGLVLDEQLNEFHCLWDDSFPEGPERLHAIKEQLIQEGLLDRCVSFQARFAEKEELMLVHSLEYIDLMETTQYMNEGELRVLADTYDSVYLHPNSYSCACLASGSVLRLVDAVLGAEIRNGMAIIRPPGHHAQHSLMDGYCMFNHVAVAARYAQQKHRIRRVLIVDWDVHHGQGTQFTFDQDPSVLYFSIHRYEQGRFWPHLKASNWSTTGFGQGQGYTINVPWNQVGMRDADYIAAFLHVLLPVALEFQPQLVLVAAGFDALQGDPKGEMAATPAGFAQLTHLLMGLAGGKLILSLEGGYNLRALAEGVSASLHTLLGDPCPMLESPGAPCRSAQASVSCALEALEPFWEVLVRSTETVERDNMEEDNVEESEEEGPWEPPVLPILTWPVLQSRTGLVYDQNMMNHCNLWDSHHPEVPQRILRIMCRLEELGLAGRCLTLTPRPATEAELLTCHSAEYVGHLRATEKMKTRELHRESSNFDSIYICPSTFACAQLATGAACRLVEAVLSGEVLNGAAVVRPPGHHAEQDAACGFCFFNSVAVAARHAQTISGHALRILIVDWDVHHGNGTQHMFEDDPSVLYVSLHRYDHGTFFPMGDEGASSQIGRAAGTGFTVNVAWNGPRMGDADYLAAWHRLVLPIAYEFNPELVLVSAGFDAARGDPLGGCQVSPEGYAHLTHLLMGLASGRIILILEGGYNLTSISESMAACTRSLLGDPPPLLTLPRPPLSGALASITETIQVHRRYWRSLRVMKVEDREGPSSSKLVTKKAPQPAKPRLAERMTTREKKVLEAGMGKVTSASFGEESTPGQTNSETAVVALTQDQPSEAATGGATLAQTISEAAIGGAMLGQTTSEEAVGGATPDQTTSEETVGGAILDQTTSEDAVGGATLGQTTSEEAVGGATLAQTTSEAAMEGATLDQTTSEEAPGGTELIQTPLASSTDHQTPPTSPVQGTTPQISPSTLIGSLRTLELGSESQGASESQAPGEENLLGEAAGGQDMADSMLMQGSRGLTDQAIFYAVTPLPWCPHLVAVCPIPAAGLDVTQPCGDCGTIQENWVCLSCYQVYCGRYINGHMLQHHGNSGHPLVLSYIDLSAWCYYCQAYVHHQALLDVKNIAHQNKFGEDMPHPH
# Description: (§1) The effect of compounds on the enzymatic activity of purified recombinant human HDAC-1, -2, -3, -6, and -8 activity and of purified rat liver HDAC was examined by measuring the deacetylation of synthetic peptides in various preparations of HDACs. HDAC assays were performed using a two-step enzymatic reaction where enzyme activity is correlated to the release of […] (AMC). AMC fluorescence is measured in a fluorescent plate reading using λex380 nm and λen440 nm.
# (§2) The reaction was allowed to proceed for 40 min at 37° C., after which developer solution (0.5% trypsin, 10 μM trichostatin A (TSA)) was added to obtain a final concentration of 0.1% trypsin, 2 μM TSA. After 30 minutes at room temperature, the amount of free fluorogenic AMC was measured as described above.
# [2] = system: IMR-32 neuroblastoma cells; assay: cytotoxicity, cell survival (CellTiterGlo) in IMR-32; assay type: cell-based; details: relative to compounds 17 and 8
# Description: The cytotoxicity of compounds was examined and directly compared to compound 17, by measuring cell survival of clonal tumor cell lines IMR-32, BE2C (neuroblastoma), as well as MDA-MB-231, BT20, HCC-38 (Basal) and MCF7 (luminal) breast cancer cells (ATCC). Cells were cultured in phenol red-free RPMI medium supplemented with 10% FBS and 1 mM Ala-Glu. Typically, 10,000-20,000 cells/well were plated in a 96 well plate (Costar 3197). Cells were exposed to compounds or vehicle (1% DMSO final). Cells were maintained in the presence of compound for four or five days. Media and compounds were renewed every 48 hours. Cell survival was measured using the luminescence CellTiterGlo kit (Promega Corporation) and expressed as relative light unit as fold over DMSO.
# [3] = target: purified recombinant human HDAC-1 (Homo sapiens, UniProt Q13547); assay: HDAC-1 enzymatic inhibition (AMC fluorogenic peptide deacetylation); assay type: biochemical; details: up to
# purified recombinant human HDAC-1, sequence (Q13547 whole entry): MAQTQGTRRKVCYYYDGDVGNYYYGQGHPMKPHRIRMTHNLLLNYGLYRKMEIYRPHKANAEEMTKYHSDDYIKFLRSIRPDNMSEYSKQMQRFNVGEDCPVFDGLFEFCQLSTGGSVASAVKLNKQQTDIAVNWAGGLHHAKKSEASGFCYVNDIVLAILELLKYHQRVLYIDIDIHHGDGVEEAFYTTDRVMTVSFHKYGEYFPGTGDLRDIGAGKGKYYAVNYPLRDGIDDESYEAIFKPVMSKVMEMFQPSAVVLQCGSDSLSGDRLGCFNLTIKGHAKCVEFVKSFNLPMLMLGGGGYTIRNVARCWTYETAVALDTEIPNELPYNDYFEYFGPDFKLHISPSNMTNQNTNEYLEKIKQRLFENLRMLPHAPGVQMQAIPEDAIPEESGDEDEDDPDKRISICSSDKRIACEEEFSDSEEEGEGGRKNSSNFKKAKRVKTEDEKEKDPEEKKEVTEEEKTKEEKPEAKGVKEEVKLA
# Description: as §1, §2
# [4] = target: T2, purified recombinant human HDAC-8 (Homo sapiens, UniProt Q9BY41); assay: HDAC-8 enzymatic inhibition (Boc-Lys(Tfa)-AMC / HDAC-Glo I/II); assay type: biochemical; details: relative to compound 17
# T2 construct: purchased Cayman Chem 10009465 (AMC assay (so in the source)); 19380 (HDAC-Glo assay)
# T2 sequence (Q9BY41 1-377): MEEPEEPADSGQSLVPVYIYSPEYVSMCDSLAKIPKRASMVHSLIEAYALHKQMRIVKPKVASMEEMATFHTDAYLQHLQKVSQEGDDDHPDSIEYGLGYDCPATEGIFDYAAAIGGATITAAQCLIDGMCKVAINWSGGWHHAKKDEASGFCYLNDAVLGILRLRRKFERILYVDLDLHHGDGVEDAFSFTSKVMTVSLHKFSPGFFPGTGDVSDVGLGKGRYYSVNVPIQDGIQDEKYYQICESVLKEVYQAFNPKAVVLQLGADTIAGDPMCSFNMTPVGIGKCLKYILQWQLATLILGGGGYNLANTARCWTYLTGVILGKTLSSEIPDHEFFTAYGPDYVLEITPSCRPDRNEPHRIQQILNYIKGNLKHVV
# Description: as §1
# HDAC-8, HDAC-9, HDAC-10 and HDAC-11 were assayed using HDAC-Glo™ I/II Kit (Promega Corporation G6421) in a total volume of 110 μl following the manufacturer's instructions.
# as §2
compound,measurement,setting,value
CC1(C)CCC(C)(C)c2cc(-c3cc4cc(C(=O)NO)ccc4[nH]3)ccc21 [Compound 13],cellular fusion after 72 hours differentiation versus DMSO,C2Cl2 myoblasts,extensive cellular fusion
same,myotube structural atrophy in exhausted media for over 8 days,C2Cl2 myoblasts,very little structural alteration
same,fold more potent than compound 17 in HDAC-6 inhibition,[1],at least 50
same,fold more potent than compounds 17 and 8 in killing IMR-32 cells,[2],ten
same,maximal inhibition of HDAC-1 activity,[3],~50%
same,times/fold more potent than compound 17 in HDAC-8 inhibition,[4],at least 13
